Data on one compound can be found in patent publication US11827665B2, “Process for the manufacture of (2S,3S,4S,5R,6S)-3,4,5-trihydroxy-6-(((4AR,10AR)-7-hydroxy-1-propyl-1,2,3,4,4A,5,10,10A-octahydrobenzo[g]quinolin-6-yl)oxy)tetrahydro-2H-pyran-2-carboxylic acid” (H. Lundbeck A/S, priority 2019, dated 2023).

Data set [1] is described as follows: Conversion in fresh human blood. Particulars: fresh blood 37° C., 1 μg/mL, 0-60 minutes. It is filed as in vitro ADME. The procedure:
Conversion of (Id) in human blood (average of 3 donors) and rat blood (average of 45 donors) to (I) was shown in fresh blood at 37° C. spiked with 1 μg/mL of (Id). (I) was measured at 0, 5, 15, 30 and 60 minutes in isolated plasma. Analysis method and Instrumentation as described in Example 7 below in the section “Instrumentation used for analysis of compound (I) from dosing of compounds (Ic) and (Id).”

Data set [2] deals with T1, human 5-HT2B receptor (Homo sapiens, UniProt P41595).
T1 construct: host or cells: CHO
T1 sequence (P41595 whole entry): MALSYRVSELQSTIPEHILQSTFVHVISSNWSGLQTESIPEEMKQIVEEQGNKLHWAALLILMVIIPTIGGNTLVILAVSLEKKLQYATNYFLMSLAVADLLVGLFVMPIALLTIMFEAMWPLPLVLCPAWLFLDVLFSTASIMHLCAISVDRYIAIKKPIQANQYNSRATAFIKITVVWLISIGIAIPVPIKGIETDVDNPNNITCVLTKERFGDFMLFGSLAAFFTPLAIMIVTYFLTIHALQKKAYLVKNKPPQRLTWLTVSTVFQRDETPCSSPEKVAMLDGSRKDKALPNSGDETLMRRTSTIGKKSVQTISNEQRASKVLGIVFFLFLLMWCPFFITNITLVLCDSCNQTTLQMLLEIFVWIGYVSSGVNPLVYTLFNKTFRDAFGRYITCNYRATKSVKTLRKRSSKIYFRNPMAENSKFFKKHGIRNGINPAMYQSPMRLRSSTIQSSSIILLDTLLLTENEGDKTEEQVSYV
Briefly: 5-HT2B radioligand binding assay. Particulars: [125I](±)DOI, CHO cell membranes, read-out: 5-HT2B binding affinity (% inhibition of control, specific binding). The procedure:
Membrane homogenates prepared from CHO cells expressing the human 5HT2B receptor were incubated for 60 minutes at room temperature with 0.2 nM [1251](±)DOI (1-(4-iodo-2, 5-dimethoxyphenyl)propan-2-amine) in the absence or presence of the test compound in a buffer containing 50 mM Tris-HCl (pH 7.4), 5 mM MgCl2, 10 μM pargyline and 0.1% ascorbic acid. Nonspecific binding is determined in the presence of 1 μM (±)DOI. Following incubation, the samples were filtered rapidly under vacuum through glass fiber filters (GF/B, Packard) presoaked with 0.3% polyethyleneimine (PEI) and rinsed several times with ice-cold 50 mM Tris-HCl using a 96-sample cell harvester (Unifilter, Packard). The filters were dried and counted for radioactivity in a scintillation counter (Topcount, Packard) using a scintillation cocktail (Microscint 0, Packard). The results are expressed as a percent inhibition of the control radioligand specific binding. The standard reference compound was (±)DOI, which was tested in each experiment at several concentrations to obtain a competition curve from which its IC50 is calculated.

The test system of data set [3] is rat hepatocytes. Briefly: Incubation with rat hepatocytes. It is filed as in vitro ADME. Conditions: 1 μg/mL, 37° C., 0.25-60 minutes. The procedure:
The cell concentration at incubation was 1×10^6 viable cells/mL. The incubations were performed in glass tubes at 37° C. with a total incubation volume of 3.5 mL and with duplicate incubations for each test item. The 3.5 mL of hepatocyte suspension was equilibrated for 10 minutes in a water bath set to 37° C. where after the incubations were initiated by adding 3.5 μL of a stock solution of the test item in DMSO (Dimethyl sulfoxide) and gently inverting the tubes. The final solvent concentration in the incubations was 0.1% DMSO. Samples of 600 μL were withdrawn from the incubations at the pre-determined time points of 0.25, 5, 15, 30 and 60 minutes after ensuring homogeneity of hepatocyte suspensions. The withdrawn volume was added to 1 mL Nunc cryotubes on wet ice containing 60 μL of ice-cold ascorbic acid (100 mg/mL) and 30 μL of ice cold 100 mM saccharic acid 1.4-lactone in 0.5 M citric acid. The tubes were mixed and 35 μL of a solution of ice cold 20% formic acid was added. The tubes were mixed thoroughly and stored at −80° C. awaiting analysis.

The subject of data set [4] is rat locomotor activity. Briefly: Rat locomotor activity (hyperactivity) assay, open field, with PK/PD. It is filed as in vivo, male CD rats. The procedure: Animals were dosed at t=60 minutes after a 60-minutes habituation period in test chambers, and activity was monitored for 350 minutes thereafter.
In total, 206 male CD rats (Charles River, Germany) weighing 200-250 grams (165-190 grams upon arrival) were used in the study. Animals were housed at a standard temperature (22±1° C.) and in a light-controlled environment (lights on from 7 am to […]) with ad libitum access to food and water. The experiment described below was performed in accordance with the standard operating procedures of Charles River Discovery Research Services Finland Ltd. and in accordance with the national Animal Experiment Board of Finland (Eläinkoelautakunta, ELLA) authority on animal testing.
The test device is a square Plexiglass-arena (measuring 40×40×40 cm), in which the movement paths of the rats are recorded by an activity monitor (Med. Associates Inc.). Before the test period is initiated, rats are habituated to their test cage for 60 minutes. Upon completion of habituation, animals were treated with either compound or vehicle and placed back into the open field apparatus. The main test parameter measured is ambulatory distance (recorded in 5-minute segments). Overall time of measurement after receiving initial treatment was 360 minutes. Total follow up period in the study was 420 min, including 60 min of habituation.

Consider `CCCN1CCC[C@@H]2Cc3c(ccc(O)c3O[C@@H]3O[C@H](C(=O)O)[C@@H](O)[C@H](O)[C@H]3O)C[C@H]21` [compound (Id), (2S,3S,4S,5R,6S)-3,4,5-trihydroxy-6-(((4aR,10aR)-7-hydroxy-1-propyl-1,2,3,4,4a,5,10,10a-octahydrobenzo[g]quinolin-6-yl)oxy)tetrahydro-2H-pyran-2-carboxylic acid], for which the “Conversion of (Id) to compound (I) in human blood” value in data set [1] is “time dependent conversion”. In addition, the inhibition at 10 µM in data set [2] is -25%. For the same compound, the “Conversion of (Id) to compound (I) in rat hepatocytes” value in data set [3] is reported as “time dependent conversion”. For the same compound, the “Relationship between plasma concentration and hyperactivity” value in data set [4] ((Id) 100 μg/kg p.o. (plasma compound (I)), apomorphine 3 mg/kg s.c. (plasma apomorphine)) is given as “correlate with the plasma concentrations of compound (I)”. In addition, the “Locomotor activity: start of effect post-administration” value in data set [4] ((Id) 10 to 300 μg/kg p.o., apomorphine 3 mg/kg s.c., pramipexole 0.3 mg/kg s.c.) is about 2 h. Further, the “Locomotor activity: end of effect post administration” value in data set [4] ((Id) 10 to 300 μg/kg p.o., apomorphine 3 mg/kg s.c., recording until 415-minute time point) is “lasting until the end of recording”. Besides, the “Total distance travelled (FIG. 3)” value in data set [4] (versus vehicle, (Id) p.o., apomorphine 3 mg/kg s.c., pramipexole 0.3 mg/kg s.c.) is listed as “significantly increased activity”.
